Test results from patent publication US20160183564A1 (priority 2013, published 2016).
Several values for one entry are separate records, joined by “and”; a condition that tells them apart may be missing. Equal values may be shown once.

Legend:
Methanogenesis = assay type: cell-based
VFA production = assay type: cell-based

SMILES	Effect on Methanogenesis (% compared to control) (Methanogenesis)	VFA profile (as percentage of total VFA) But. (VFA production)	VFA profile (as percentage of total VFA) Prop. (VFA production)	VFA profile (as percentage of total VFA) ace. (VFA production)
O=[N+]([O-])c1ccc(NCCO)cc1 [2-(4-Nitro-phenylamino)-ethanol]	−12%			
O=[N+]([O-])OCCCO [3-nitrooxy propanol, 3-Nitrooxypropanol]	−9% and −8%	6 percentage of total VFA	34 percentage of total VFA	59 percentage of total VFA
CCCNc1ccc([N+](=O)[O-])cc1 [(4-Nitro-phenyl)-propyl-amine]	−11%			
Nc1ccc([N+](=O)[O-])cc1 [(4-nitro-phenyl)-amine]	−15%	8 percentage of total VFA	33 percentage of total VFA	59 percentage of total VFA
